In patent US8507756B2, “Plant protection” (Plant Bioscience Limited, priority 2007, dated 2013):

Tests used:
[1] = tested on: Tetranychus urticae (two-spotted spider mite); assay: Spider mite challenge of untreated tomato plants grown adjacent to plants from JA-treated seeds; assay type: in vivo; details: tomato cv Carousel; neighbours of 1.5 or 3.0 mM JA seed treatment
Protocol: The effect of Tetranychus urticae on plants was measured by means of counting the number of live and dead mites on each plant and the number of mite eggs present using a dissecting microscope. Seeds of a UK commercial F1 hybrid tomato variety (cv. Carousel) were treated with either 1.5 or 3.0 mM jasmonic acid (JA) and 42.8 mM ethanol in deionised H2O for a period of 24 hours at 4° C. in the dark. Those seeds were then removed from solution and washed in deionised H2O only to remove the JA coating the outside of the seed. Those seed were then germinated in a commercial manner using rockwool blocks and were grown on under glasshouse conditions appropriate to this crop. Plants were challenged with two-spotted spider mite (Tetranychus urticae) 7 weeks after treatment a common crop pest, acting here as a “model herbivore”. […] The effect was observed on comparing the controls located at least 10 meters away. (FIG. 6). The illustrated data are means of 10 replicates+/−standard error of the mean. […] The effect was again observed on comparing the controls located at least 10 meters away. (FIG. 7). The illustrated data are means of 10 replicates+/−standard error of the mean.

[2] = tested on: Tetranychus urticae (two-spotted spider mite); assay: JA seed treatment, tomato plants challenged with two-spotted spider mite; assay type: in vivo; details: tomato cv. Carousel
Protocol: Tomato, pepper, maize and wheat seeds were treated with 3 mM JA or 1.5 mM JA solutions or with 3 mM methyl jasmonate (MeJA) or with deionised water containing 42.8 mM ethanol (control) by full submersion of up to 40 seeds in a Petri dish of solution wrapped in foil for a period of 24 hours at 4° C. in a fridge. A temperature of 4° C. was used both to prevent degradation of the jasmonic acid solutions and to prevent germination of the seeds.
The seeds were then removed from the treatment solution and washed in 1 liter of deionised water for 5 minutes to remove the JA or MeJA coating the outside of the seeds.
Tomato seeds were sown in rockwool blocks and grown on peat-based compost in glass houses at 12° C.-28° C. under artificial light on a 16 hour light and 8 hour dark cycle for 48, 56 or 70 days.
Tomato plants were then challenged with Tetranychus urticae (two-spotted spider mite) which were allowed to feed for 9 days, Manduca sexta (tobacco hornworm) caterpillars which were allowed to feed for 4 days or Myzus persicae (aphid), which were allowed to feed for 10 or 12 days. In each case these organisms were restricted to the plant on which they had originally been placed. Pepper plants were challenged with Myzus persicae (aphid), which were allowed to feed for 2 weeks. Maize and wheat plants were challenged with Spodoptera exempta caterpillars which were allowed to feed for 2 days (maize) or 3 days (wheat).
The effect of Tetranychus urticae on plants was measured by means of counting the number of live and dead mites on each plant and the number of mite eggs present using a dissecting microscope.
Seeds of a UK commercial F1 hybrid tomato variety (cv. Carousel) were treated with either 1.5 or 3.0 mM jasmonic acid (JA) and 42.8 mM ethanol in deionised H2O for a period of 24 hours at 4° C. in the dark. Those seeds were then removed from solution and washed in deionised H2O only to remove the JA coating the outside of the seed. Those seed were then germinated in a commercial manner using rockwool blocks and were grown on under glasshouse conditions appropriate to this crop. Plants were challenged with two-spotted spider mite (Tetranychus urticae) 7 weeks after treatment a common crop pest, acting here as a “model herbivore”.

Myzus persicae = assay: JA seed treatment, sweet pepper plants challenged with aphids; assay type: in vivo; details: sweet pepper cv Biscayne, seed treatment 1.5 mM JA
Protocol: Tomato, pepper, maize and wheat seeds were treated with 3 mM JA or 1.5 mM JA solutions or with 3 mM methyl jasmonate (MeJA) or with deionised water containing 42.8 mM ethanol (control) by full submersion of up to 40 seeds in a Petri dish of solution wrapped in foil for a period of 24 hours at 4° C. in a fridge. A temperature of 4° C. was used both to prevent degradation of the jasmonic acid solutions and to prevent germination of the seeds. Pepper seeds were sown in peat-based compost and grown in unheated glass houses under ambient conditions in the summer. Tomato plants were then challenged with Tetranychus urticae (two-spotted spider mite) which were allowed to feed for 9 days, Manduca sexta (tobacco hornworm) caterpillars which were allowed to feed for 4 days or Myzus persicae (aphid), which were allowed to feed for 10 or 12 days. In each case these organisms were restricted to the plant on which they had originally been placed. Pepper plants were challenged with Myzus persicae (aphid), which were allowed to feed for 2 weeks. […] The effect of Myzus persicae on plants was determined by counting the aphid population on each plant under a dissecting microscope at ×10 magnification. […] Aphids were allowed to feed on the plants for two weeks and the growth of the aphid population over this period was then measured. […]

cucumber = assay: Long term growth and yield study after JA seed treatment, cucumber; assay type: in vivo; details: seed treatment 1.5 or 3.0 mM JA, weekly harvests
Excerpt: Data are means of 8 replicate plants+/−standard error of the mean, and the line is a fitted growth response.

[3] = tested on: tomato (Solanum lycopersicum cv "Carousel") seeds; assay: Effect of JA seed treatment on seed germination of tomato; assay type: in vivo
Excerpt: The illustrated data are means of 10 replicate populations+/−standard error of the mean, and the line is a fitted dose response.

[4] = Dissolution of JA in water when preparing the solution; assay type: physicochemical; details: 250 mg JA; ethanol needed first
Protocol: 6. 1 ml of ethanol was added to the vial of JA using a 1000 μl Gilson pipette, the lid of the vial replaced and the vial shaken to dissolve the JA.

CC/C=C\C[C@H]1C(=O)CC[C@@H]1CC(=O)O [JA, jasmonic acid]
Population of T. urticae on untreated plants grown adjacent to plants from JA-treated seeds, vs controls at least 10 meters away [1]: significant reduction
Reproductive rate of the mite (egg production) on untreated plants grown adjacent to plants from JA-treated seeds, vs controls at least 10 meters away [1]: significant reduction
Observed resistance induced against spider mite ([2]; 8 weeks after application of the JA to the seeds): significant
Visual damage caused by red spider mite attack (pale stippling of the leaf surface) ([2]; seed treatment 3.0 mM JA vs control, challenged 7 weeks after treatment): substantially reduced
Reproductive rate of the mite measured by egg production (eggs per adult female) compared with control plants ([2]; seed treatment 1.5 or 3.0 mM JA, 10 replicates): significant reduction
Population of two-spotted spider mite on the leaves (number of live mites) compared with control plants ([2]; seed treatment 1.5 or 3.0 mM JA, mites fed 9 days, 10 replicates): significant reduction
Rate of aphid population growth compared with controls (Myzus persicae; challenged 8 weeks after seed treatment, 2 weeks feeding): significant (p<0.001) reduction
Aphid population growth rate from fitted growth curves (Myzus persicae; control 0.19+/-0.011): 0.11+/−0.016
Vegetative or reproductive growth, or commercial yield (cucumber): no significant effect
JA concentration that significantly reduced the final percentage germination ([3]; JA between 0.001 and 50 mM tested, germination 7 days after sowing): > 10 mM
Final percentage germination ([3]; seed treatment 1.5 or 3.0 mM JA): no significant effects
Delay of seed germination ([3]; seed treatment 1.5 or 3.0 mM JA, 24 hours at 4 C in the dark): delayed by approximately one day
Solubility in water [4]: will not dissolve in water directly
